The structures appear in SMILES notation.

One may read the inhibition as the relative decrease from the control value, in per cent. High values mean a response far below the control, low ones a response near the control.

T1 sequence (P08546 whole entry): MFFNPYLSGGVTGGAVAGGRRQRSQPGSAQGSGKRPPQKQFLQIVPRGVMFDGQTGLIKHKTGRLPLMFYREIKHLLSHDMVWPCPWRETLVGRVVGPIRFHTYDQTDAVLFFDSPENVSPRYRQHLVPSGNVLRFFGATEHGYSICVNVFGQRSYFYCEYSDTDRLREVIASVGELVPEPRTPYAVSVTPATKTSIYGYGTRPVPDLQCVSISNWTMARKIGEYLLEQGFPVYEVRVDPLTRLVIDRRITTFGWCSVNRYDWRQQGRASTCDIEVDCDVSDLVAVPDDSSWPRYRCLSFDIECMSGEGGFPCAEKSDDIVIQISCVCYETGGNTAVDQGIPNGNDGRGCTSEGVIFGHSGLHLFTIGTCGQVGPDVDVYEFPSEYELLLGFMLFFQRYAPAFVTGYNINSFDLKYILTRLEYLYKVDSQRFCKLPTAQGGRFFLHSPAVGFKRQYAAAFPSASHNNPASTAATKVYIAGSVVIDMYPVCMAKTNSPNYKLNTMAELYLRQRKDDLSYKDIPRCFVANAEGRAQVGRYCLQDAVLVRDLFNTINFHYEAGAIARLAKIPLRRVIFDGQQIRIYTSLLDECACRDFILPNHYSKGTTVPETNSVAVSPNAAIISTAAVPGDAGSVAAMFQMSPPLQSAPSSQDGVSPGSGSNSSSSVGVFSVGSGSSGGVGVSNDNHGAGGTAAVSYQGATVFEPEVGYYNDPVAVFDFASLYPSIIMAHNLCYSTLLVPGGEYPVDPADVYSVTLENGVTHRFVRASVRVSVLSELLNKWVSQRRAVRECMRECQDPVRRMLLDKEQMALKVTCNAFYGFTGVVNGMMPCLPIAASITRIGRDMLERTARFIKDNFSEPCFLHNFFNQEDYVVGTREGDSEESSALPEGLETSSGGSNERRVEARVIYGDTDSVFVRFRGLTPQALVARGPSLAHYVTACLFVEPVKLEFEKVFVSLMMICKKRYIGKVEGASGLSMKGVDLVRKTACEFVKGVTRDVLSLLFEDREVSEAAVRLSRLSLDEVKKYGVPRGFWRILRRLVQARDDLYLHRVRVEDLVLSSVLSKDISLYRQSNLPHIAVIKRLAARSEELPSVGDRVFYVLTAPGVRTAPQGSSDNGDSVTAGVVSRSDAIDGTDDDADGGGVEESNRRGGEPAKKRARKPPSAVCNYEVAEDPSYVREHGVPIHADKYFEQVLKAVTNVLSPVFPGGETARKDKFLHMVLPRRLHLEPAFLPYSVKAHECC

This test concerns the target T1, HCMV polymerase (Human cytomegalovirus, UniProt P08546).
T1 construct: made in house; host or cells: SF-9 insect cells infected with recombinant baculovirus
Nature of the test: HCMV polymerase assay (scintillation proximity assay). In kind it is biochemical. Conditions: percentage of inhibition at 25 μM concentration in CMV polymerase assay. The essentials:
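Baculovirus/SF-9-expressed HCMV polymerase in 5.4 mM HEPES pH 7.5, 11.7 mM KCl, 4.5 mM MgCl2, 0.36 mg/ml BSA, 90 nM 3H-dTTP, with or without 2 mM CHAPS. Started with 6 nM biotinylated poly(dA)-oligo(dT), 30 min at 25 or 37 °C, EDTA-stopped, read by streptavidin-SPA counting; % inhibition at 25 μM.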
Turning to `CCOC(=O)N1CCC(Nc2nnc(NC(=O)c3c(OCC)ccc4ccccc34)s2)CC1` [compound 86, ethyl 4-[(5-{[(2-ethoxy-1-naphthyl)carbonyl]amino}-1,3,4-thiadiazol-2-yl)amino]tetrahydro-1(2H)-pyridinecarboxylate], the inhibition at 25 µM amounted to 67%. Take `CC(C)c1cc(C(C)C)c(C(=O)Nc2nnc(NCCCn3ccnc3)s2)c(C(C)C)c1` [compound 87, N-(5-{[3-(1H-imidazol-1-yl)propyl]amino}-1,3,4-thiadiazol-2-yl)-2,4,6-triisopropylbenzamide]: the inhibition at 25 µM worked out at 67%. Same read-out and setting: in the case of `NS(=O)(=O)c1ccc(CNc2nnc(NC(=O)/C=C/c3ccccc3Cl)s2)cc1` [compound 88, (E)-N-(5-{[4-(aminosulfonyl)benzyl]amino}-1,3,4-thiadiazol-2-yl)-3-(2-chlorophenyl)-2-propenamide] it was 66.5%; in that of `CCOc1ccc2ccccc2c1C(=O)Nc1nnc(NCCc2c[nH]cn2)s1` [compound 89, 2-ethoxy-N-(5-{[2-(1H-imidazol-4-yl)ethyl]amino}-1,3,4-thiadiazol-2-yl)-1-naphthamide], 66.3%.

As for `O=C(Nc1nnc(NCCc2c[nH]c3ccccc23)s1)c1ccc(S(=O)(=O)F)cc1` [compound 90, 4-{[(5-{[2-(1H-indol-3-yl)ethyl]amino}-1,3,4-thiadiazol-2-yl)amino]carbonyl}benzenesulfonyl fluoride], the “% Inhib” value turned out to be 66.1%. Compound `CCCCCCCC/C=C/CCCCCCCC(=O)Nc1nnc(NC2CCN(C(=O)OCC)CC2)s1` [compound 91, ethyl 4-({5-[(E)-9-octadecenoylamino]-1,3,4-thiadiazol-2-yl}amino)tetrahydro-1(2H)-pyridinecarboxylate] had an inhibition at 25 µM of 66.1%.

Turning to `O=C(Nc1nnc(NCCc2cccs2)s1)c1c(Cl)cccc1Cl` [compound 92, 2,6-dichloro-N-(5-{[2-(2-thienyl)ethyl]amino}-1,3,4-thiadiazol-2-yl)benzamide], the inhibition at 25 µM was determined as 66.1%. Regarding `CCOc1ccc2ccccc2c1C(=O)Nc1nnc(NC2CCCc3ccccc32)s1` (centres unmarked) [compound 93, 2-ethoxy-N-[5-(1,2,3,4-tetrahydro-1-naphthaienylamino)-1,3,4-thiadiazol-2-yl]-1-naphthamide], 25 µM produced 66% inhibition.

With `O=C(/C=C/c1ccccc1)Nc1nnc(NCc2ccncc2)s1` [compound 94, (E)-3-phenyl-N-{5-[(4-pyridinylmethyl)amino]-1,3,4-thiadiazol-2-yl}-2-propenamide], at 25 µM the inhibition was 65.9%. On the same count and under the same terms, in the case of `CCOc1ccc2ccccc2c1C(=O)Nc1nnc(NC2CCc3ccccc32)s1` (centres unmarked) [compound 95, N-[5-(2,3-dihydro-1H-inden-1-ylamino)-1,3,4-thiadiazol-2-yl]-2-ethoxy-1-naphthamide] it was 65.9%; in that of `O=C(Nc1nnc(NCc2ccc3c(c2)OCO3)s1)c1c(Cl)cccc1Cl` [compound 96], 65.9%.

As to `CCOc1ccc2ccccc2c1C(=O)Nc1nnc(NCCc2cccs2)s1` [compound 97, 2-ethoxy-N-(5-{[2-(2-thienyl)ethyl]amino}-1,3,4-thiadiazol-2-yl)-1-naphthamide], the inhibition at 25 µM is 65.8%. Same read-out and setting: the figure for `O=C(/C=C/c1ccccc1Cl)Nc1nnc(NCCc2c[nH]cn2)s1` [compound 98, (E)-3-(2-chlorophenyl)-N-(5-{[2-(1H-imidazol-4-yl)ethyl]amino}-1,3,4-thiadiazol-2-yl)-2-propenamide] is 65.7%. For `O=C(Nc1nnc(NCCCn2ccnc2)s1)c1c(Cl)cccc1Cl` [compound 99, 2,6-dichloro-N-(5-{[3-(1H-imidazol-1-yl)propyl]amino}-1,3,4-thiadiazol-2-yl)benzamide], the inhibition at 25 µM is 65.6%. Compound `CCCCCCCC/C=C/CCCCCCCC(=O)Nc1nnc(NCc2ccc(OC)c(OC)c2)s1` [compound 100, (E)-N-{5-[(3,4-dimethoxybenzyl)amino]-1,3,4-thiadiazol-2-yl}-9-octadecenamide] returned an inhibition at 25 µM of 65.1%. Same read-out and setting: in the case of `O=C(Nc1nnc(NCc2cccc3ccccc23)s1)c1c(Cl)cccc1Cl` [compound 101, 2,6-dichloro-N-{5-[(1-naphthylmethyl)amino]-1,3,4-thiadiazol-2-yl}benzamide] it was 65%; in that of `N#Cc1ccc(C(=O)Nc2nnc(NCCc3cccs3)s2)cc1` [compound 102, 4-cyano-N-(5-{[2-(2-thienyl)ethyl]amino}-1,3,4-thiadiazol-2-yl)benzamide], 64.9%; in that of `N#Cc1ccc(C(=O)Nc2nnc(NC3CCCCCC3)s2)cc1` [compound 103, 4-cyano-N-[5-(cycloheptylamino)-1,3,4-thiadiazol-2-yl]benzamide], 64.9%. In turn, `O=C(Nc1nnc(NC2CCCCCC2)s1)c1ccc([N+](=O)[O-])o1` [compound 104, N-[5-(cycloheptylamino)-1,3,4-thiadiazol-2-yl]-5-nitro-2-furamide] yielded an inhibition at 25 µM of 64.7%.

Turning to `CCCCCCCC/C=C/CCCCCCCC(=O)Nc1nnc(NCCc2ccccc2)s1` [compound 105, (E)-N-[5-(phenethylamino)-1,3,4-thiadiazol-2-yl]-9-octadecenamide], the inhibition at 25 µM stood at 64.6%. Still for that read-out and setting: in the case of `CCCCCCCCCCCNc1nnc(NC(=O)CCCCCl)s1` [compound 106, 5-chloro-N-[5-(undecylamino)-1,3,4-thiadiazol-2-yl]pentanamide] it was 64.2%. The compound `CCCCCCCC/C=C/CCCCCCCC(=O)Nc1nnc(NC2CCCc3ccccc32)s1` (centres unmarked) [compound 107, (E)-N-[5-(1,2,3,4-tetrahydro-1-naphthalenylamino)-1,3,4-thiadiazol-2-yl]-9-octadecenamide] displayed an inhibition at 25 µM of 63.8%. As to `CCCCCCCC/C=C/CCCCCCCC(=O)Nc1nnc(NCCCCc2ccccc2)s1` [compound 108, (E)-N-{5-[(4-phenylbutyl)amino]-1,3,4-thiadiazol-2-yl}-9-octadecenamide], 25 µM produced 63.5% inhibition. Same read-out and setting: the figure for `CC(C)c1cc(C(C)C)c(C(=O)Nc2nnc(NCCC3CCCN3C)s2)c(C(C)C)c1` (centres unmarked) [compound 109, 2,4,6-triisopropyl-N-(5-{[2-(1-methyl-2-pyrrolidinyl)ethyl]amino]-1,3,4-thiadiazol-2-yl)benzamide] is 63.4%; for `O=C(/C=C/c1ccccc1Cl)Nc1nnc(NC2CCN(Cc3ccccc3)CC2)s1` [compound 110, (E)-N-{5-[(1-benzyl-4-piperidinyl)amino]-1,3,4-thiadiazol-2-yl}-3-(2-chlorophenyl)-2-propenamide] it is 62.9%. Turning to `O=C(Nc1nnc(NCC(c2ccccc2)c2ccccc2)s1)c1ccc(S(=O)(=O)F)cc1` [compound 111, 4-[({5-[(2,2-diphenylethyl)amino]-1,3,4-thiadiazol-2-yl}amino)carbonyl]benzenesulfonyl fluoride], the “% Inhib” value was determined as 62.6%. The compound `O=C(Nc1nnc(NCCCNC2CCCCC2)s1)c1ccc(C(F)(F)F)cc1` [compound 112, N-(5-{[3-(cyclohexylamino)propyl]amino}-1,3,4-thiadiazol-2-yl)-4-(trifluoromethyl)benzamide] showed an inhibition at 25 µM of 62.5%.

For the compound `CCCCCCCC/C=C/CCCCCCCC(=O)Nc1nnc(NCC2CC2)s1` [compound 113, (E)-N-{5-[(cyclopropylmethyl)amino]-1,3,4-thiadiazol-2-yl}-9-octadecenamide], the inhibition at 25 µM is 62.2%. Turning to `O=C(/C=C/c1ccccc1)Nc1nnc(NCCSc2ccccc2)s1` [compound 114, (E)-3-phenyl-N-(5-{[2-(phenylsulfanyl)ethyl]amino}-1,3,4-thiadiazol-2-yl)-2-propenamide], 25 µM produced 62.1% inhibition. Still for that read-out and setting: the figure for `O=C(Nc1nnc(NC2CCc3ccccc32)s1)c1c(Cl)cccc1Cl` (centres unmarked) [compound 115, 2,6-dichloro-N-[5-(2,3-dihydro-1H-inden-1-ylamino)-1,3,4-thiadiazol-2-yl]benzamide] is 62%; for `CCCCC(CC)CNc1nnc(NC(=O)c2ccc3c(c2)C(=O)OC3=O)s1` (centres unmarked) [compound 116, N-{5-[(2-ethylhexyl)amino]-1,3,4-thiadiazol-2-yl}-1,3-dioxo-1,3-dihydro-2-benzofuran-5-carboxamide] it is 61.9%; for `O=C(/C=C/c1ccccc1Cl)Nc1nnc(NCc2ccc3c(c2)OCO3)s1` [compound 117, (E)-N-{5-[(1,3-benzodioxol-5-ylmethyl)amino]-1,3,4-thiadiazol-2-yl}-3-(2-chlorophenyl)-2-propenamide] it is 61.5%. `O=C(Nc1nnc(NCc2cccs2)s1)c1c(Cl)cccc1Cl` [compound 118, 2,6-dichloro-N-{5-[(2-thienylmetyl)amino]-1,3,4-thiadiazol-2-yl}benzamide]: the inhibition at 25 µM was found to be 61.2%. `CCCCCCCC/C=C/CCCCCCCC(=O)Nc1nnc(NCc2cccc3ccccc23)s1` [compound 119, (E)-N-{5-[(1-naphthylmethyl)amino]-1,3,4-thiadiazol-2-yl}-9-octadecenamide] returned an inhibition at 25 µM of 60.6%. On the same count and under the same terms, the figure for `CC(C)(C)OC(=O)CCNc1nnc(NC(=O)/C=C/c2ccccc2)s1` [compound 120, tert-butyl 3-[(5-{[(E)-3-phenyl-2-propenoyl]amino}-1,3,4-thiadiazol-2-yl)amino]propanoate] is 60%; for `CCCCCCCCCCCNc1nnc(NC(=O)c2ccc(F)cc2F)s1` [compound 121, 2,4-difluoro-N-[5-(undecylamino)-1,3,4-thiadiazol-2-yl]benzamide] it is 60%; for `CCOc1ccc2ccccc2c1C(=O)Nc1nnc(NCc2ccc(OC)c(OC)c2)s1` [compound 122, N-{5-[(3,4-dimethoxybenzyl)amino]-1,3,4-thiadiazol-2-yl}-2-ethoxy-1-naphthamide] it is 59.5%. Compound `CCCCCCCC/C=C/CCCCCCCC(=O)Nc1nnc(NCCNC(C)=O)s1` [compound 123, (E)-N-(5-{[2-(acetylamino)ethyl]amino}-1,3,4-thiadiazol-2-yl)-9-octadecenamide] returned an inhibition at 25 µM of 59.2%.
